Measurements reported in US7404962B1, “Combination kit used in the treatment of malaria” (Nicholas Piramal India Limited, priority 2000, dated 2008).
Read-outs that look alike come from different tables or passages of the source.

Legend:
[1] = literature; cited from earlier work
[2] = system: anti-oxidant defense enzymes; conditions: literature; cited from earlier work
P. vivax = experiment: Clinical evaluation of the combination kit in patients, one year surveillance study; type: in vivo, human; conditions: compound I 25 mg vs primaquine 15 mg, each with chloroquine
Procedure: The efficacy of the combination kit of the present invention, containing compound I (25 mg) was clinically evaluated and compared with primaquine (15 mg) used in combination with chloroquine in a group of patients over a one year surveillance study.

P. cynomolgi = experiment: Radical curative activity against P. cynomolgi in rhesus monkeys; type: in vivo
Procedure: The radical curative anti-malarial activity and toxicity of the compound I was evaluated and compared with that caused by primaquine.
Combination regimen of chloroquine and 3-[1-[[4-[(6-methoxy-8-quinolinyl)amino]pentyl]amino]ethylidene]-dihydro-2(3H)furanone(I) tested against P. cynomolgi in rhesus monkeys.
The therapeutic effect of the combination regimen consisting of chloroquine and 3-[1-[[4-[(6-methoxy-8-quinolinyl)amino]pentyl]amino]-ethylidene]-4,5-dihydro-2(3H)furanone (I) was tested against P. cynomolgi in rhesus monkeys. 3-[1-[[4-[(6-methoxy-8-quinolinyl)-amino]pentyl]amino]ethylidene]-dihydro-2(3H)furanone(I) was administered in the dose level of 4.00 mg/kg (to 3 monkeys), 3.00 mg/kg (to 3 monkeys), 2.50 mg/kg (to 4 monkeys), 2.00 mg/kg (to 3 monkeys) and 1.25 mg/kg (to 9 monkeys) for 7 days. Chloroquine was administered as a companion drug at 5 mg/kg (base) dose. Minimum curative dose of compound I was found 1.25 mg/kg in 9 monkeys.

[3] = Methemoglobin toxicity study in healthy human volunteers; type: in vivo
Procedure: 3-[1-[[4-[(6-methoxy-8-quinolinyl)amino]pentyl]amino]ethylidene]-dihydro-2(3H)furanone (I) was evaluated vis-à-vis primaquine for toxicity related to methemoglobin formation in human.
The methemoglobin toxicity of compound I was evaluated via-à-vis that of primaquine in normal human volunteers.

[4] = literature, cited from earlier work

| SMILES | methemoglobin formation / toxicity versus primaquine [1] | toxicity versus primaquine [1] | effect on anti-oxidant defense enzymes versus primaquine [2] | radical curative activity versus primaquine (P. vivax) | curative effect at doses higher than 1.25 mg/kg (P. cynomolgi; 2.0, 2.50, 3.00 and 4.00 mg/kg (base) for 7 days, chloroquine 5 mg/kg (base)) | Minimum curative dose (P. cynomolgi; 9 rhesus monkeys, 7 days, chloroquine companion drug at 5 mg/kg (base)) | blood smears after stopping the treatment (P. cynomolgi; all monkeys observed over a period of 100 days) | curative (P. cynomolgi; rhesus monkeys, 7 days, dose range 1.25 mg/kb to 4 mg/kg) | relapse after stopping the treatment (P. cynomolgi; rhesus monkeys, up to 100 days after stopping the treatment) | methemoglobin level before dosing ([3]; human, in vivo) | anti-relapse activity versus primaquine [4] | anti-relapse activity versus primaquine ([4]; listed as compound of formula (I)) | methemoglobin level after dosing ([3]; healthy human volunteers, 15 mg daily for 7 days) | methemoglobin level before dosing ([3]; healthy human volunteers, starting level) |
| --- | --- | --- | --- | --- | --- | --- | --- | --- | --- | --- | --- | --- | --- | --- |
| COc1cc(NC(C)CCCN/C(C)=C2/CCOC2=O)c2ncccc2c1 (stereo not shown) [compound I, 3-[1-[[4-[(6-methoxy-8-quinolinyl)amino]pentyl]amino]ethylidene]-dihydro-2(3H)-furanone] | less methemoglobin formation | safer and less toxic | less effect on anti-oxidant defense enzymes than primaquine | as effective as primaquine | curative | 1.25 mg/kg | remained negative | 100% | no relapse observed | 2.29% | comparable to Primaquine | comparable to primaquine | – | – |
| COc1cc(C)c2c(Oc3cccc(C(F)(F)F)c3)c(OC)cc(NC(C)CCCN)c2n1 (stereo not shown) [tafenoquine, reference compound] | almost three times more than that of primaquine | – | – | – | – | – | – | – | – | – | more effective than primaquine | – | – | – |
| COc1cc(NC(C)CCCN)c2ncccc2c1 (stereo not shown) [primaquine, reference compound] | – | – | – | – | – | – | – | – | – | – | – | – | 16.23% | 3.97% |
